According to patent US20240132431A1, “METHOD FOR ALKYLATING ACIDIC FUNCTIONAL GROUP” (Chugai Seiyaku Kabushiki Kaisha, priority 2021, published 2024):

Biological target: T1, Bcl-2 protein (Recombinant Human Bcl-2 Protein) (Homo sapiens, UniProt P10415)
T1 construct: purchased Novus NBP2-34889
Test: Binding evaluation of mixture library compounds to Bcl-2 using AS-MS (affinity selection mass spectrometry)
Settings: for ASMS ratio (%) n = 2 / ASMS ratio (%) n = 1: ASMS Ratio(%)=(A−C)/B×100; for ASMS ratio (%) n = 2: replicate n = 2; for ASMS ratio (%) n = 1: replicate n = 1
Experimental: For one well of MICROPLATE, 96-well, PP, V-BOTTOM (Greiner bio-one, 651201), DMSO solutions of 12 mixtures (prepared to approximately 0.58 mM based on calculations from the average molecular weight of each mixture), in each of which 100 compounds are mixed, were each dispensed, and dispensed into a total of 12 wells, where the 12 mixtures are mixAI-B4J-01, mixAI-B1M-01, mixAI-B1K-01, mixAI-B10-01, mixAI-B1A-01, mixAI-B3A-01, mixAI-B21-01, mixAI-B2L-01, mixAI-B2N-01, mixAI-B2A-01, mixAI-B2Q-01, and mixAI-B2R-01 listed in [Table AI-03-B4J-01], [Table AI-03-B1M-01], [Table AI-03-B1K-01], [Table AI-03-B10-01], [Table AI-03-B1A-01], [Table AI-03-B3A-01], [Table AI-03-B2I-01], [Table AI-03-B2L-01], [Table AI-03-B2N-01], [Table AI-03-B2A-01], [Table AI-03-B2Q-01], and [AI-03-B2R-01] shown in Example 6. Using the LABCYTE ECHO® 555 Acoustic Dispensing System (BECKMAN COULTER), 70 nL was collected from each of the 12 wells into one arbitrary well to prepare a sample solution with 1200 compounds in the mixed state (the presence of 1152 compounds had already been identified when prepared in Example 6-5-3). (In the present specification, the mixture collected in this one well is referred to as one library.) Furthermore, a Bcl-2 protein (Novus, NBP2-34889, Recombinant Human Bcl-2 Protein, Lot E60145051) (19.2 μL) that had been prepared in advance to be 20.9 μM using a Tris-HCl buffer (25 mM Tris-HCl pH 7.4, 150 mM NaCl, 0.025% Tween-20, 1 mM DTT) was added to the well in which 1200 compounds (the presence of 1152 compounds had already been identified when prepared in Example 6-5-3) were dispensed (final compound concentration […], final Bcl-2 concentration 20 μM), and the mixture was incubated in the dark at 23° C. for 1 hour. Next, using the 96-well MacroSpin column, P-2 Material (Harvard, 74-5655) that had been swollen, conditioning of the 96-well MacroSpin column was performed three times by centrifugation with 200 μL of an assay buffer (25 mM Tris-HCl pH 7.4, 150 mM NaCl, 0.025% Tween-20, 1 mM DTT), 2000 XG, 4° C., 2 min. Subsequently, 20 μL of the sample after incubation was added to the 96-well MacroSpin column, P-2 Material, that had been conditioned, and SEC treatment was performed by centrifugation at 2000×G for 2 minutes. To the liquid passed from the SEC, 32 μL of a 1:1 mixed solution of acetonitrile and methanol (LC/MS grade, Fujifilm Wako Pure Chemical Corporation) was added, the mixture was centrifuged at 1800×G, 4° C., 5 min, and the supernatant was used as analysis sample ASMS (A), while a sample that had been prepared by the same operations at 1200 compounds/well and to which only the Tris-HCl buffer had been added without the Bcl-2 protein was incubated under the same conditions, no 96-well MacroSpin column treatment was performed, the same organic solvent was added, and the supernatant solution obtained by centrifugation was used as STD (B). Next, a sample that had been prepared by the same operations at 1200 compounds/well and to which only the Tris-HCl buffer had been added without the Bcl-2 protein was incubated under the same conditions, the same 96-well MacroSpin column treatment was performed, the same organic solvent was added, and the supernatant solution obtained by centrifugation was used as BK (C), and measured by reversed phase LC/MS.
Then, analysis of the 1200 compounds was carried out for samples A, B, and C with TraceFinder 5.1 (Thermo Fisher Scientific) and CHANCE Software (in-house), and the ASMS Ratio (%) was calculated according to the following calculation formula.
Calculation formula: ASMS Ratio(%)=(A−C)/B×100

[1] = AS-MS on the mixture of 1200 library compounds
[2] = AS-MS, mixture of 1200 compounds, Bcl-2

T1 sequence (P10415 whole entry): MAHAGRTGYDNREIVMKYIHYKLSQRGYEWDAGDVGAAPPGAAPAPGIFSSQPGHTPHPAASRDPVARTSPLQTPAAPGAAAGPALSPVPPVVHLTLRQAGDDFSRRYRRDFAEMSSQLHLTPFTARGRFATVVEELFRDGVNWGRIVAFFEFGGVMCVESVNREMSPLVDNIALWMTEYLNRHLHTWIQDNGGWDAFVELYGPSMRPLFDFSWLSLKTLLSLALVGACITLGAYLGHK

Compound | ASMS ratio (%) n = 2 [1] | ASMS ratio (%) n = 1 [1] | ASMS ratio (%) (n = 1) | ASMS ratio (%) (n = 2) | further results
CCOc1cccc(-c2cc(CN3CCN(c4ccc(C(=O)N(C)CC56CC7CC(CC(C7)C5)C6)cc4)CC3)cc(OC(F)(F)F)c2)c1 [B3A063-01, N-(1-Adamantylmethyl)-4-[4-[[3-(3-ethoxyphenyl)-5-(trifluoromethoxy)phenyl]methyl]piperazin-1-yl]-N-methylbenzamide] | 390.0% | – | – | – | –
CCOc1cncc(-c2cc(CN3CCN(c4ccc(C(=O)Nc5ccc(OC)cc5)nn4)CC3)cc(OC(C)C)c2)c1 [B1O084-01] | 2.0% | 6.8% | – | – | –
CCOc1cncc(-c2cc(C(=O)N3CCN(c4ccc(C(=O)N(CC)CC)nn4)CC3)cc(C(F)(F)F)c2)c1 [B4J018-01, 6-[4-[3-(5-Ethoxypyridin-3-yl)-5-(trifluoromethyl)benzoyl]piperazin-1-yl]-N,N-diethylpyridazine-3-carboxamide] | −1.7% | −0.5% | – | – | –
CCOc1cncc(C#Cc2ccccc2CN2CCN(c3ccc(C(=O)NS(=O)(=O)CC45CC6CC(CC(C6)C4)C5)cc3)CC2)c1 [B2A070-01, N-(1-Adamantylmethylsulfonyl)-4-[4-[[2-[2-(5-ethoxypyridin-3-yl)ethynyl]phenyl]methyl]piperazin-1-yl]benzamide] | – | – | – | – | ASMS ratio (%) n = 2 (AS-MS, mixture library, Bcl-2): 0.0%
CCOc1cccc(-c2ccc(C(=O)N3CCN(c4ccc(C(=O)NS(=O)(=O)C(C)(C)C)nn4)CC3)cc2F)c1 [B2L005-01, N-tert-Butylsulfonyl-6-[4-[4-(3-ethoxyphenyl)-3-fluorobenzoyl]piperazin-1-yl]pyridazine-3-carboxamide] | – | – | 0.0% | 0.0% | –
CCOc1cncc(-c2ccc(CN3CCN(c4ccc(C(=O)N(CC)CC)nn4)CC3)cc2F)c1 [B4J078-01, 6-[4-[[4-(5-Ethoxypyridin-3-yl)-3-fluorophenyl]methyl]piperazin-1-yl]-N,N-diethylpyridazine-3-carboxamide] | – | – | – | – | ASMS ratio (%) n = 1 (AS-MS, mixture library, Bcl-2): −0.5%; ASMS ratio (%) n = 2 (AS-MS, mixture library, Bcl-2): 0.9%
CCOc1cncc(-c2ccc(CN3CCN(c4ccc(C(=O)NS(=O)(=O)c5ccc(NCCSc6ccccc6)c(C(F)(F)F)c5)cc4)CC3)c(OC)c2)c1 [B2R054-01, 4-[4-[[4-(5-Ethoxypyridin-3-yl)-2-methoxyphenyl]methyl]piperazin-1-yl]-N-[4-(2-phenylsulfanylethylamino)-3-(trifluoromethyl)phenyl]sulfonylbenzamide] | – | – | 3.3% | −0.8% | –
CCOc1cncc(-c2cc(CN3CCN(c4ccc(C(=O)NS(=O)(=O)C(C)(C)C)nn4)CC3)cc(OC(C)C)c2)c1 [B2L084-01, N-tert-Butylsulfonyl-6-[4-[[3-(5-ethoxypyridin-3-yl)-5-propan-2-yloxyphenyl]methyl]piperazin-1-yl]pyridazine-3-carboxamide] | – | – | −3.0% | −1.9% | –
CCOc1cccc(-c2cc(C(=O)N3CCN(c4ccc(C(=O)NS(=O)(=O)C(C)(C)C)cc4)CC3)cc(C(C)(C)C)c2)c1 [B2L037-01, 4-[4-[3-tert-Butyl-5-(3-ethoxyphenyl)benzoyl]piperazin-1-yl]-N-tert-butylsulfonylbenzamide] | – | – | 0.0% | 0.0% | –
CCOc1cncc(-c2cc(OC)c(CN3CCN(c4ccc(C(=O)NS(=O)(=O)CCC(F)(F)F)nn4)CC3)c(OC)c2)c1 [B2N086-01, 6-[4-[[4-(5-Ethoxypyridin-3-yl)-2,6-dimethoxyphenyl]methyl]piperazin-1-yl]-N-(3,3,3-trifluoropropylsulfonyl)pyridazine-3-carboxamide] | – | – | 0.0% | 0.0% | –
CCOc1cncc(-c2cc(C(=O)N3CCN(c4ccc(C(=O)NS(=O)(=O)C(C)(C)C)nn4)CC3)cc(C(C)(C)C)c2)c1 [B2L016-01, 6-[4-[3-tert-Butyl-5-(5-ethoxypyridin-3-yl)benzoyl]piperazin-1-yl]-N-tert-butylsulfonylpyridazine-3-carboxamide] | – | – | 0.0% | −5.4% | –
CCOc1cccc(-c2ccccc2CN2CCN(c3ccc(C(=O)N(C)CC45CC6CC(CC(C6)C4)C5)cc3)CC2)c1 [B3A045-01, N-(1-Adamantylmethyl)-4-[4-[[2-(3-ethoxyphenyl)phenyl]methyl]piperazin-1-yl]-N-methylbenzamide] | 2.5% | 3.2% | – | – | –
CCOc1cccc(-c2ccccc2CN2CCN(c3ccc(C(=O)N(C)CC45CC6CC(CC(C6)C4)C5)nn3)CC2)c1 [B3A071-01, N-(1-Adamantylmethyl)-6-[4-[[2-(3-ethoxyphenyl)phenyl]methyl]piperazin-1-yl]-N-methylpyridazine-3-carboxamide] | −4.7% | 3.2% | – | – | –
4-[4-[[4-(5-Ethoxypyridin-3-yl)thiophen-2-yl]methyl]piperazin-1-yl]-N-propylbenzamide [B1M050-01] | – | – | – | – | ASMS ratio (%) n = 1 [2]: −2.0%; ASMS ratio (%) n = 2 [2]: −0.2%
CCOc1cccc(-c2cc(C(=O)N3CCN(c4ccc(C(=O)NS(=O)(=O)c5ccc(NCCSc6ccccc6)c(C(F)(F)F)c5)cc4)CC3)cc(C(F)(F)F)c2)c1 [B2R039-01, 4-[4-[3-(3-Ethoxyphenyl)-5-(trifluoromethyl)benzoyl]piperazin-1-yl]-N-[4-(2-phenylsulfanylethylamino)-3-(trifluoromethyl)phenyl]sulfonylbenzamide] | – | – | 9.7% | −4.8% | –
CCOc1cccc(-c2cc(C(=O)N3CCN(c4ccc(C(=O)NS(=O)(=O)CC56CC7CC(CC(C7)C5)C6)cc4)CC3)cc(C(F)(F)F)c2)c1 [B2A039-01, N-(1-Adamantylmethylsulfonyl)-4-[4-[3-(3-ethoxyphenyl)-5-(trifluoromethyl)benzoyl]piperazin-1-yl]benzamide] | – | – | – | – | ASMS ratio (%) n = 1 (AS-MS, mixture library, Bcl-2): 7.4%; ASMS ratio (%) n = 2 (AS-MS, mixture library, Bcl-2): −10.4%
CCOc1cccc(-c2cc(OC)c(CN3CCN(c4ccc(C(=O)Nc5ccc(OC)cc5)cc4)CC3)c(OC)c2)c1 [B1O059-01, 4-[4-[[4-(3-Ethoxyphenyl)-2,6-dimethoxyphenyl]methyl]piperazin-1-yl]-N-(4-methoxyphenyl)benzamide] | −1.9% | 2.0% | – | – | –
CCOc1cccc(-c2csc(CN3CCN(c4ccc(C(=O)N(C)CC56CC7CC(CC(C7)C5)C6)nn4)CC3)c2)c1 [B3A093-01, N-(1-Adamantylmethyl)-6-[4-[[4-(3-ethoxyphenyl)thiophen-2-yl]methyl]piperazin-1-yl]-N-methylpyridazine-3-carboxamide] | 0.0% | −3.8% | – | – | –
CCOc1cccc(-c2ccc(C(=O)N3CCN(c4ccc(C(=O)NS(C)(=O)=O)cc4)CC3)c3ccccc23)c1 [B2I035-01, 4-[4-[4-(3-Ethoxyphenyl)naphthalene-1-carbonyl]piperazin-1-yl]-N-methylsulfonylbenzamide] | – | – | – | – | ASMS ratio (%) n = 1 (AS-MS, mixture library, Bcl-2): 0.0%; ASMS ratio (%) n = 2 (AS-MS, mixture library, Bcl-2): 1.6%
